Series [1] can be described thus: Cytotoxicity in MDBK cells assessed as reduction in cell viability. It counts as cell-based, Bos taurus. Particulars: cattle.
For series [2], the system named is Bovine viral diarrhea virus 1. The experiment in a line: Antiviral activity against BVDV1 Nose infected in MDBK cells assessed as inhibition of virus replication-induced cell destruction. The format is functional, organism-based. The settings on record: Bovine viral diarrhea virus isolates and strains.
A short description of series [3]: Selectivity index, ratio of CC50 for MDBK cells to EC50 for antiviral activity against BVDV1 Nose.

SMILES strings stand for the structures.

For orientation: CC50 means the concentration at which the toxic effect on the cells reaches its halfway point. Broadly, the EC50 is the concentration needed to bring the measured effect to its halfway point.

In the case of `CCC(CC)(c1ccc(NCC(O)C(C)(C)C)c(C)c1)c1ccc(OC[C@@H](O)CO)c(C)c1` (stereo partly drawn), in series [1], the half-maximal cytotoxic concentration (CC50) came out at 43 µM. Besides, in series [2], the half-maximal effective concentration (EC50) is 25 µM. Further, the “Ratio CC50/EC50” value in series [3] came out at 1.72.

On to `CCC(CC)(c1ccc(OCC(=O)C(C)(C)C)c(C)c1)c1ccc(N(CC(=O)C(C)(C)C)Cc2ccccc2)c(C)c1`, for which the cytotoxic concentration (CC50) in series [1] is > 100 µM. Further, in series [2], the half-maximal effective concentration (EC50) came out at 28 µM.

Turning to `CCC(CC)(c1ccc(O)c(C)c1)c1ccc(OCC(=O)C(C)(C)C)c(C)c1`, the CC50 in series [1] turned out to be 5.23 µM. The EC50 in series [2] turned out to be 8.6 µM.

`CCC(CC)(c1ccc(O)cc1)c1ccc(O)cc1`: in series [1], the half-maximal cytotoxic concentration (CC50) worked out at 39 µM. Also, the EC50 in series [2] turned out to be 10 µM. In series [3], the “Ratio CC50/EC50” value came out at 3.9.

As for `Nc1ccc(C2(c3ccc(O)cc3)CCCCC2)cc1`, the 50% cytotoxic concentration (CC50) in series [1] worked out at 42 µM. Further, the half-maximal effective concentration (EC50) in series [2] is > 42 µM.

As to `Cc1cc(C(C)(C)c2ccc(OCC(=O)C(C)(C)C)c(C)c2)ccc1OCC(=O)C(C)(C)C`, the CC50 in series [1] was > 100 µM. For the same compound, the EC50 in series [2] was found to be 12 µM.

With `Cc1cc(C2(c3ccc(OCC(=O)C(C)(C)C)c(C)c3)CCC2)ccc1OCC(=O)C(C)(C)C`, the CC50 in series [1] is > 100 µM. Besides, the EC50 in series [2] was 6.3 µM.

As to `Cc1cc(C2(c3ccc(OCC(=O)C(C)(C)C)c(C)c3)CCCC2)ccc1OCC(=O)C(C)(C)C`, in series [1], the CC50 is > 100 µM. Moreover, the concentration giving a half-maximal response (EC50) in series [2] was 13 µM.

As to `Cc1cc([Si](C)(C)c2ccc(OCC(=O)C(C)(C)C)c(C)c2)ccc1OCC(=O)C(C)(C)C`, in series [1], the 50% cytotoxic concentration (CC50) was > 100 µM. The half-maximal effective concentration (EC50) in series [2] was determined as 12.8 µM.

In the case of `CC[Si](CC)(c1ccc(OCC(=O)C(C)(C)C)c(C)c1)c1ccc(OCC(=O)C(C)(C)C)c(C)c1`, the CC50 in series [1] is > 100 µM. The 50% effective concentration (EC50) in series [2] was determined as 8.4 µM.

Consider `CC[Si](CC)(c1ccc(OCC(=O)C(C)(C)C)cc1)c1ccc(OCC(=O)C(C)(C)C)cc1`, for which, in series [1], the CC50 was > 100 µM. The EC50 in series [2] was 6.2 µM.

Regarding `CC[Si](CC)(c1ccc(O)cc1)c1ccc(OCC(=O)C(C)(C)C)cc1`, in series [1], the CC50 came out at 46.8 µM. In addition, in series [2], the concentration giving a half-maximal response (EC50) amounted to 8 µM. In addition, the “Ratio CC50/EC50” value in series [3] came to 5.85.

Turning to `CCC(CC)(c1ccc(NCC(=O)C(C)(C)C)c(C)c1)c1ccc(OCC(=O)C(C)(C)C)c(C)c1`, in series [1], the CC50 is 82 µM. Besides, the EC50 in series [2] was found to be 8.9 µM. For the same compound, in series [3], the “Ratio CC50/EC50” value worked out at 9.21.

For the compound `CCN(CC)C(=O)Oc1ccc(C(CC)(CC)c2ccc(NC(C)=O)c(C)c2)cc1C`, the CC50 in series [1] came to 50 µM. Besides, the EC50 in series [2] was 10 µM. The “Ratio CC50/EC50” value in series [3] is recorded as 5.

The record behind these values is ChEMBL document CHEMBL1782006, “Discovery of diphenylmethane analogs as anti-bovine diarrhea viral agents” (Bioorg Med Chem Lett, 2009).
